Experimental data reported in patent US20220372585A1, “Sensors for Aromatic Compounds and Methods of Making and Using Same” (Washington University, priority 2021, published 2022).
pEC50: −log10 of the molar value. Where two headings read alike, the source gives them in different places.

Assays:
WT TrpR = biological target: T1, WT TrpR (Escherichia coli, UniProt P0A881); assay: WT TrpR system, repression of GFP expression; format: cell-based, E. coli
T1 construct: trpR (WT); expressed in transfected cells; host or cells: E. coli Nissle 1917 (EcN), genomic trpR knocked out; plasmid pMBA035 (P17-trpR)
Excerpt: Among the various aspects of the present disclosure is the provision of systems and methods for detecting aromatic compounds. An aspect of the present disclosure provides for a method of protein engineering (e.g., a regulator protein) comprising: mutagenizing specific amino acids in and around a ligand-binding site of a protein, wherein the mutagenizing enables changes in ligand-protein binding specificity while maintaining protein-DNA interaction and thus downstream gene expression control; and/or linking ligand-protein binding to output response. An aspect of the present disclosure provides for an engineered molecular sensor. […] In some embodiments, the engineered regulator protein or the ligand-protein binding site or a sequence encoding the engineered regulator protein or the ligand-protein binding site of the engineered regulator protein is at least about 80% identical to a WT regulator protein or a WT regulator ligand-protein binding site; or a sequence encoding the engineered regulator protein or ligand binding site thereof is at least about 80% identical to a sequence encoding the WT regulator protein or the WT regulator ligand-protein binding site; or functional fragment thereof, the engineered regulator protein having ligand binding activity. In some embodiments, the engineered molecular sensor is optionally genomically integrated into a microorganism, optionally selected from a probiotic or is a purified cell-free sensor. In some embodiments, the engineered regulator protein or enzyme is an engineered TrpR, TyrR, TynA, or FeaR protein. […] In some embodiments, the engineered regulator protein is an engineered TrpR and is a tryptophan (Trp)-, 5-hydroxytryptophan (5-HTP)-, or tryptamine (Trpta)-specific sensor. In some embodiments, the engineered regulator protein or enzyme is an engineered TrpR, TyrR, TynA, or FeaR, and/or wherein the engineered TrpR, TyrR, TynA, or FeaR comprises at least one mutation to a ligand-protein binding site having specific amino acid binding activity. […]

TrpR variant O1 = biological target: T2, TrpR variant O1 (Escherichia coli, UniProt P0A881, A80R/G78N/I79W/K72S/T83K); assay: TrpR O1 variant with synthetic Ptrp promoter, repression of GFP expression; format: cell-based, E. coli
T2 construct: trpR (O1); expressed in transfected cells; host or cells: E. coli Nissle 1917 (EcN), genomic trpR knocked out; plasmid pMBA173 (P17-trpR(O1))
Excerpt: (§1) Among the various aspects of the present disclosure is the provision of systems and methods for detecting aromatic compounds. An aspect of the present disclosure provides for a method of protein engineering (e.g., a regulator protein) comprising: mutagenizing specific amino acids in and around a ligand-binding site of a protein, wherein the mutagenizing enables changes in ligand-protein binding specificity while maintaining protein-DNA interaction and thus downstream gene expression control; and/or linking ligand-protein binding to output response. An aspect of the present disclosure provides for an engineered molecular sensor. […] In some embodiments, the engineered regulator protein or the ligand-protein binding site or a sequence encoding the engineered regulator protein or the ligand-protein binding site of the engineered regulator protein is at least about 80% identical to a WT regulator protein or a WT regulator ligand-protein binding site; or a sequence encoding the engineered regulator protein or ligand binding site thereof is at least about 80% identical to a sequence encoding the WT regulator protein or the WT regulator ligand-protein binding site; or functional fragment thereof, the engineered regulator protein having ligand binding activity. […]

TrpR variant OD = biological target: T3, TrpR variant OD (Escherichia coli, UniProt P0A881, A80L/G78C/I79C/K72S/T83R); assay: TrpR OD variant with synthetic Ptrp promoter, repression of GFP expression; format: cell-based, E. coli
T3 construct: trpR (OD); expressed in transfected cells; host or cells: E. coli Nissle 1917 (EcN), genomic trpR knocked out; plasmid pMBA103 (P17-trpR(OD))
Excerpt: as §1

[1] = Sauerkraut, safe limit; cited from earlier work
[2] = system: TynA-KP with FeaR-KA I109N; assay: GFP fluorescence from PtynA-MG with TynA-KP and FeaR-KA I109N; format: cell-based, Klebsiella aerogenes
Excerpt: FIG. 32. […] Sensor system with PtynA-MG, TynA-KP and FeaR-KA was chosen as the wild type (WT) for further directed evolution. TynA-KP was employed to reduce the possible interference from DA during evolution processes. Values and error bars are the average and standard deviation of biological triplicate, respectively.
FIG. 33A-FIG. 33B. […] The expression of PtynA-MG was regulated by the TynA-KP with FeaR-KA I109N mutant. Points represent experimental data while lines represent the fitted curves. […] Values and error bars are the average and standard deviation of biological triplicate, respectively.

[3] = system: wild-type TynA with M83N FeaR; assay: PtynA-GFP reporter, wild-type TynA with M83N FeaR (pCX073); format: cell-based, E. coli MG1655; conditions: pCX008, pCX073, FIG. 6E, 24 h
Experimental: (§2) Flow cytometry was performed as previously described. […] Cytometry data was gated by forward and side scatter.

[4] = system: wild-type TynA with W110C FeaR; format: cell-based, E. coli MG1655; conditions: 24 h, FIG. 28D
Experimental: as §2

G494S TynA and A81S FeaR = format: cell-based, E. coli MG1655; conditions: G494S TynA and A81S FeaR; 5 h and 24 h; FIG. 23A-B
Experimental: as §2

[5] = system: wild-type TynA with W110S FeaR; format: cell-based, E. coli MG1655; conditions: 24 h, FIG. 28C
Experimental: as §2

[6] = system: wild-type TynA with A81T FeaR; format: cell-based, E. coli MG1655; conditions: wild-type TynA; 1 mM, 24 h; FIG. 21
Experimental: as §2

[7] = system: G494S TynA with A81T FeaR; format: cell-based, E. coli MG1655; conditions: G494S*; 5 h; FIG. 17A
Experimental: as §2

[8] = system: G415H TynA with wild-type FeaR; format: cell-based, E. coli MG1655; conditions: G415H TynA + wild-type FeaR, pCX008, pCX015
Experimental: as §2

[9] = system: G494S TynA with wild-type FeaR; format: cell-based, E. coli MG1655; conditions: G494S TynA, wild-type FeaR; 5 h and 24 h; FIG. 18A-B
Experimental: as §2

[10] = system: wild-type TynA with L108T FeaR; format: cell-based, E. coli MG1655; conditions: 24 h, FIG. 28B
Experimental: as §2

[11] = system: wild-type TynA with M83Q FeaR; format: cell-based, E. coli MG1655; conditions: 24 h, FIG. 28A
Experimental: as §2

TynA-FeaR system = assay: microbe, parasite or virus in culture; conditions: for pEC50: Escherichia coli, read-out: KA (half maximal constant)
Experimental: To develop sensors for aromatic amines, the TynA-FeaR system was first characterized in EcN. A sensor plasmid was constructed, which consisted of constitutively expressed TynA and FeaR from E. coli MG1655, and a reporter plasmid, which consisted of GFP under the control of PtynA (see e.g., FIG. 3B). […] Next, the sensitivity and selectivity to different ligands was characterized.
For fluorescence-based quantification, single colonies were transferred to 5 mL LB medium (VWR, Radnor, Pa., USA) in 14 mL round bottom tubes and incubated overnight at 250 rpm and 37° C. Unless otherwise specified, experimental cultures were prepared by diluting overnight cultures 100× into 0.6 mL M9 minimal medium supplemented with 1 mM MgSO4, […]), and 2% w/v glycerol as well as the respective ligands (DA, PEA, Tyra, and Trypta) in 2 mL 96-deep well plates. Cultures were grown for 24 h at 37° C. and 250 rpm. After 5 h and 24 h of incubation, samples were obtained from the cultures for flow cytometry analysis.
Flow cytometry was performed as previously described. Culture samples were collected and diluted to a final OD600 of ˜0.005-0.01 in […] filtered phosphate-buffered saline supplemented with 2 mg/ml kanamycin in 96-well assay microplates (U-bottom, REF-353910 from BD Biosciences, San Jose, Calif., USA). The fluorescence of the samples was measured using a Millipore Guava EasyCyte High Throughput flow cytometer with a 488 nm excitation laser and 512/18 nm emission filter. Cytometry data was gated by forward and side scatter. FlowJo (TreeStar Inc.) was used to obtain the arithmetic mean of the fluorescence distribution. The averages of the arithmetic means were calculated from three biological replicates. The average fluorescence of the non-fluorescent wild-type cell was subtracted from each sample to obtain the final fluorescence (au) values (Equation 2). To obtain the relative fluorescence in FIG. 6A-FIG. 6C, fluorescence values for each variant were normalized to the fluorescence of the wild-type sensor using Equation 3.
The Hill equation (Equations 4 and 5) was used to fit lines to the fluorescence data. The model was fit to the experimentally collected data by minimizing the root mean square error (RMSE; Equation 6).

[12] = system: wild-type TynA with A81P FeaR; assay: microbe, parasite or virus in culture; format: cell-based, E. coli MG1655; conditions: A81P FeaR; 5 h and 24 h; FIG. 25A-B
Experimental: as §2

[13] = system: wild-type TynA and A81L FeaR; assay: microbe, parasite or virus in culture; format: cell-based, E. coli MG1655; conditions: A81L FeaR; 5 h; FIG. 24
Experimental: as §2

[14] = wild-type TynA + W110C FeaR, pCX008, pCX117
[15] = wild-type TynA + W110S FeaR, pCX008, pCX116
[16] = wild-type TynA + L108T FeaR, pCX008, pCX099
[17] = wild-type TynA + M83Q FeaR, pCX008, pCX083
[18] = wild-type TynA and FeaR, pCX008, pHJY022, FIG. 3D, 24 h induction
[19] = wild-type TynA and FeaR, pCX008, pHJY022, FIG. 14, 5 h induction

With `N[C@@H](Cc1c[nH]c2ccccc12)C(=O)O` [Trp, tryptophan] the “fold repression of GFP expression” value (WT TrpR) was 120 fold, the fold repression (TrpR variant O1) was “about 60 fold” and the fold repression (TrpR variant OD) was “about 5 fold”.
For `NCCc1ccc(O)cc1` [Tyramine, tyramine], the Concentration [1] is listed as 120 µM, the response ([2]; FeaR-KA I109N, 5 h and 24 h, FIG. 33A-B) is listed as “lack of response” and the induction of fluorescence ([2]; I109N variant, 0.5 mM, 24 h, FIG. 32) is listed as “not”. The Fmax [3] was 158, the Fmin [3] was 1.5 and the “n (Hill coefficient)” value [3] was 12. For the same molecule, the response ([4]; W110C FeaR) was “lack of response”, the Fmax [4, 14] was 148 and the Fmin [4, 14] was 0.9. For the same molecule, the “n (Hill coefficient)” value [4, 14] was 9.7, the response (G494S TynA and A81S FeaR) was “lack of response” and the response ([5]; W110S FeaR) was “lack of response”. For the same molecule, the Fmax [5, 15] was 127, the Fmin [5, 15] was 1.5 and the “n (Hill coefficient)” value [5, 15] was 9.8. The “effect of the A81T FeaR mutation on the response of the sensor” value [6] was “insignificant impact”, the response [7] was “lack of response” and the Fmax ([8]; FIG. 4D, 24 h) was 226. For the same molecule, the Fmin ([8]; FIG. 4D, 24 h) was 0, the “n (Hill coefficient)” value ([8]; FIG. 4D, 24 h) was 0.9 and the Fmax ([8]; FIG. 17B, 5 h) was 152. For the same molecule, the Fmin ([8]; FIG. 17B, 5 h) was 0, the “n (Hill coefficient)” value ([8]; FIG. 17B, 5 h) was 0.8 and the response [9] was “lack of response”. The response ([10]; L108T FeaR) was “lack of response”, the Fmax [10, 16] was 78 and the Fmin [10, 16] was 1.8. For the same molecule, the “n (Hill coefficient)” value [10, 16] was 1.6, the response ([11]; M83Q FeaR) was “lack of response” and the Fmax [11, 17] was 55. For the same molecule, the Fmin [11, 17] was 0.4, the “n (Hill coefficient)” value [11, 17] was 8.4 and the pEC50 (TynA-FeaR system; 5 h) was 4.43. The pEC50 (TynA-FeaR system; 24 h) was 4.11, the Fmin (TynA-FeaR system; [18]) was 4.4 and the “n (Hill coefficient)” value (TynA-FeaR system; [18]) was 5. The Fmax (TynA-FeaR system; [19]) was 311, the Fmin (TynA-FeaR system; [19]) was 10.6 and the “n (Hill coefficient)” value (TynA-FeaR system; [19]) was 1.6. For the same molecule, the response [12] was “lack of response” and the response [13] was “lack of response”.
